The test system of one data set is human keratinocyte cells. Format: cell-based. As to conditions: 24 h incubation, total protein quantity.
Data set [1] in a line: Antioxidative capacity: inhibition of the peroxidation of lipids. The following applies: pure polyphenols isolated from wood materials. The class given is biochemical. From the text:
In Tables 4A, 4B, 4C and 4D, there are represented antioxidative and free radical capturing effects of pure polyphenolic compounds and of unpurified polyphenolic compounds containing raw extracts obtained from wood bark and stem knotwood.

Data set [2] in a line: Peroxide radicals capturing capacity. The class given is biochemical. The following applies: pure polyphenols isolated from wood material. From the text:
Tables 4C and 4D further represent the free radicals capturing capacity of certain pure polyphenols and unpurified polyphenol extracts with respect to peroxide radicals.

The conditions of data set [3]: pure polyphenols; footnote 1: Willför et al., J. Agric. Food. Chem, 51, 26 (2003); cited from earlier work.
The conditions of data set [4]: pure polyphenols; footnote 1: Willför et al., J. Agric. Food. Chem., 51, 7600-7606 (2003); cited from earlier work.

Like-named read-outs stand apart in the source and are kept apart here.

Take `Cc1cc(C(C)(C)C)c(O)c(C(C)(C)C)c1` [BTH, butylated hydroxytoluene]: in the data set with human keratinocyte cells, the “EC20 ppm 24 h (limit value by which 20% of the cultivated cells died)” value is listed as 5.50 ppm. Consider `COc1cc([C@H]2c3cc(O)c(OC)cc3C[C@@H](CO)[C@@H]2CO)ccc1O` [Cyclolariciresinol], for which the “EC50 μg/L, concentration which inhibits 50% of the peroxidation of the lipids” value in data set [1] turned out to be 17 µg/L. Also, in data set [2], the “capturing capacity mmol/g (peroxide radicals)” value (“capturing capacity mmol/g” for short) is 12 mmol/g. The matching figures for `O=C1c2c(O)cc(O)cc2O[C@H](c2ccc(O)cc2)[C@H]1O` [Dihydrokaempferol]: 488 µg/L and 0.78 mmol/g.

For `COc1cc(C[C@H]2C(=O)OC[C@@H]2[C@H](O)c2ccc(O)c(OC)c2)ccc1O` [Hydroxymatairesinol], the “EC50 μg/L, concentration which inhibits 50% of the peroxidation of the lipids” value in data set [3] was 58 µg/L. Further, the “capturing capacity mmol/g” value in data set [4] is recorded as 5.6 mmol/g. Take `COc1cc(C[C@H]2CO[C@H](c3ccc(O)c(OC)c3)[C@H]2CO)ccc1O` [Lariciresinol]: the “EC50 μg/L, concentration which inhibits 50% of the peroxidation of the lipids” value in data set [3] was 126 µg/L. Also, the “capturing capacity mmol/g” value in data set [4] is 2.7 mmol/g.

As to `COc1cc(C[C@H]2COC(=O)[C@@H]2Cc2ccc(O)c(OC)c2)ccc1O` [Matairesinol], the “EC50 μg/L, concentration which inhibits 50% of the peroxidation of the lipids” value in data set [3] was 99 µg/L. In addition, the “capturing capacity mmol/g” value in data set [4] is 2.9 mmol/g.

As to `Oc1ccc([C@H]2Oc3c(ccc(O)c3O)[C@@H](O)[C@H]2O)cc1O` [Melacasidine], the “EC50 μg/L, concentration which inhibits 50% of the peroxidation of the lipids” value in data set [1] was 36 µg/L. The “capturing capacity mmol/g” value in data set [2] turned out to be 20 mmol/g. On to `COc1cc(C[C@H]2COC(=O)[C@]2(O)Cc2ccc(O)c(OC)c2)ccc1O` [Nortrachelogenin], for which the “EC50 μg/L, concentration which inhibits 50% of the peroxidation of the lipids” value in data set [3] was 53 µg/L. Moreover, the “capturing capacity mmol/g” value in data set [4] is recorded as 5.9 mmol/g.

Turning to `O=C1C[C@@H](c2ccccc2)Oc2cc(O)cc(O)c21` [Pinosembrin], the “EC50 μg/L, concentration which inhibits 50% of the peroxidation of the lipids” value in data set [1] is 1135 µg/L. In addition, the “capturing capacity mmol/g” value in data set [2] was determined as 0.49 mmol/g. The corresponding values for `Oc1cc(O)cc(/C=C/c2ccccc2)c1` [Pinosylvin] are 50 µg/L and 0.78 mmol/g. As to `COc1cc(C[C@@H](CO)[C@H](CO)Cc2ccc(O)c(OC)c2)ccc1O` [Secoisolariciresinol], in data set [3], the “EC50 μg/L, concentration which inhibits 50% of the peroxidation of the lipids” value is 37 µg/L. In addition, in data set [4], the “capturing capacity mmol/g” value is 8.5 mmol/g.

For the compound `O=C1c2c(O)cc(O)cc2O[C@H](c2ccc(O)c(O)c2)[C@H]1O` [Taxifolin], the “EC50 μg/L, concentration which inhibits 50% of the peroxidation of the lipids” value in data set [3] is 46 µg/L. Moreover, in data set [4], the “capturing capacity mmol/g” value is 16 mmol/g. On to `Oc1ccc([C@H]2Oc3c(ccc(O)c3O)[C@@H](O)[C@H]2O)cc1` [Teracasidine], for which the “EC50 μg/L, concentration which inhibits 50% of the peroxidation of the lipids” value in data set [1] stood at 50 µg/L. The “capturing capacity mmol/g” value in data set [2] came out at 7.8 mmol/g. The matching figures for Pinoresinol: 20 µg/L and 7.8 mmol/g.
